Laboratory results taken from patent US20230271956A1, “AMIDE DERIVATIVES” (Merck Patent GmbH, priority 2020, published 2023).

Tests used:
human rec ACSS2 = target: T1, human rec ACSS2 (Homo sapiens, UniProt Q9NR19); test: Biochemical activity ACSS2 assay (AMP-Glo); conditions: human recombinant ACSS2, AMP-Glo, 180 min at 37° C.
T1 construct: myc (C); purchased Origene
Protocol: The biochemical activity assay for ACSS2 is based on the detection of released AMP by AMP-Glo ™ Assay kit (Promega, Madison). The assay is run in three steps: the enzymatic reaction in which human rec ACSS2 activates acetate with ATP and Coenzyme A as cosubstrates to acetyI-coA thereby releasing AMP and the detection reaction of AMP by AMP Glo assay in which after the destruction of the residual ATP with AMP Glo reagent 1 produced AMP is converted to ATP that is measured in a luciferase assay system (detection reagent). The ACSS2 activity correlates with the detected luminescence signal.
The assay was performed in Perkin Elmer 384well white Proxiplates in a total volume of 8 µl.
1 nM (fc) C-term myc tagged ACSS2 (human, recombinant, Origene, Rockville, US) and a mixture of 100 µM (fc) ATP, 100 µM (fc) Coenzyme A and 500 µM (fc) sodium acetate were incubated in a total volume of 5 µl (50 mM Hepes, 1 mM Mg-chloride, 150 mM NaCl, 1 mM DTT, 0.01 % (w/v) BSA, 0.3 % DMSO, pH 7.5) in the absence or presence of the test compound (10 dilution concentrations, start conc 30 µM) for 180 min at 37° C. The reaction was stopped and residual ATP destroyed by the addition of 1 µl AMP Glo reagent solution (Promega, Madison, US). After 1 h incubation at room temperature 2 µl of AMP Glo detection reagent was added and the assay was incubated for 0.75 hr at room temperature. The luminescence signal was measured with an Envision multimode reader (Perkin Elmer LAS Germany GmbH) at 700 nm in luminescence mode. The full value used was the inhibitor-free reaction. The pharmacological zero value was generated by addition of ACSS2 inhibitor (Ac-CoA Synthase Inhibitor - CAS 508186-14-9 -Calbiochem) in a final concentration of 5 µM. The inhibitory values (IC50) were determined using the program Assay Analyzer® from GeneData.

ACSS2 = target: T2, ACSS2 (Homo sapiens, UniProt Q9NR19); test: Cellular assay of 14C acetate incorporation into histones (IC50 ACSS2 cellular histone); type: cell-based; conditions: HCT-15 cells
T2 construct: endogenous fatty acid synthesis activity in the human HCT-15 cancer cell line; endogenous in cells; host or cells: HCT-15
T2 sequence (Q9NR19 whole entry): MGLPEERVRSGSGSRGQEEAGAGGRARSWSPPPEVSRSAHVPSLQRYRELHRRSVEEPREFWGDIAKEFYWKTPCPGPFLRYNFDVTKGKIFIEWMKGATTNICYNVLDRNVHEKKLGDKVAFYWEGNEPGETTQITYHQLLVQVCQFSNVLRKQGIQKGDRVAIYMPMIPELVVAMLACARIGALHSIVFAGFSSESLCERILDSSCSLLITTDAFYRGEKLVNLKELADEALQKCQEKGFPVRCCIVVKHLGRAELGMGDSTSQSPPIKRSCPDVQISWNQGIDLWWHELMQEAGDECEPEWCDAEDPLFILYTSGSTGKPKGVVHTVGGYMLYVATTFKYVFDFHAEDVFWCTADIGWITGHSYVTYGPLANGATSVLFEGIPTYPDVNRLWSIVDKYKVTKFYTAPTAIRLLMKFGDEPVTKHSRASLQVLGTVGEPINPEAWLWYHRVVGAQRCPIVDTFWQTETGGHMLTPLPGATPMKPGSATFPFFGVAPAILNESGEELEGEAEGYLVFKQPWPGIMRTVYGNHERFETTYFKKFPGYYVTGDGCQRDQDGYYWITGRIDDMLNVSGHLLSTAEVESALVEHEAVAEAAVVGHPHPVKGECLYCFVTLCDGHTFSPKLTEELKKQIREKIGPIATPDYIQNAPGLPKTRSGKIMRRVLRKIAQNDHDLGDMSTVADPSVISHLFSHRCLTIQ
Protocol: This protocol describes a cellular assay capable to quantify endogenous histone acetylation activity in the human HCT-15 cancer cell line following the incorporation of extracellularly administered radiolabeled ^14C acetate with a scintillation based read out on acid extracted histones.
HCT-15 cells are trypsinized, washed and suspended in DMEM culture medium supplemented with penicillin/streptomycin (100 U/mL), sodium pyruvate (1 mM), and 10% FBS
Compounds serial dilutions are prepared in 96-well V-bottom microplate from 10 mM stock solutions in DMSO. From these dilutions 0.5 µl are transferred to a fresh plate including pure DMSO as negative control. The dilutions are prepared such, that the final concentration in the assay is 1/400 of the concentration in the serial dilution. The final DMSO concentration in the assay is 0.25 %.
The cell suspension is seeded at densities of 2x10^5 cells per 170 µl into individual wells of a 96 well plate each containing 0.5 µl aliquots of compound serial dilutions and are kept for 1h in a cell incubator. To each well 30 µL of a mixture containing 0.5 mCi/mL of ^14C-acetate with full medium are added. Then, the wells are incubated for 3 hrs in the cell incubator.
Further steps of the procedure should be conducted on ice or instrumentations precooled to 4° C. Cells are sedimented in the 96-well V-bottom microplate by centrifugation (Eppendorf 5804 R) at 1200 rpm for 5 min. The supernatant is removed and the cells are washed twice with 200µL of PBS-NaB (5 mM sodium butyrate) buffer by iterative resuspension and centrifugation. Finally, the cells are resuspended in 50 µL of TEB (PBS-NaB + 0.5 % Triton X-100) and left on ice for 10 minutes. After centrifugation at 2300 rpm for 10 minutes at 4° C. the supernatant is removed, the remaining pellet is suspended in 50 µL of 0.2 M HCl and incubated over night at 4° C. After incubation the well plate is shaken for 2 minutes in a MTP plate shaker set to 1200 rpm and then centrifuged at 3700 rpm for 10 mins. The lysate is carefully aspirated (~43 µL) and transferred into a white MTP plate (Greiner bio-one 65509). 90 µL of Ultima Gold XR scintillation cocktail are added and the plates are sealed with a transparent cover tape before mixing vigorously using plate shaker set to 1200 rpm. Radioactivity from ^14C incorporation in the wells is measured as CPM count in a MicroBeta Trilux luminescence counter.

T1 sequence (Q9NR19 whole entry): as above

SMILES	IC50 (human rec ACSS2) [nM]	IC50 (ACSS2) [nM]
CCn1cc(NC(=O)c2cc3c(nc2OC)nc(C(O)(c2ccccc2)c2ccc(OC(F)F)cc2F)n3CC)cn1 (racemic) [Compound 79, 2-{[4-(difluoromethoxy)-2-fluorophenyl](hydroxy)phenylmethyl}-1-ethyl-N-(1-ethyl-1H-pyrazol-4-yl)-5-methoxy-1H-imidazo[4,5-b]pyridine-6-carboxamide]	10 to 100	1 to 10
CCn1cnc(NC(=O)c2cc3c(nc2OC)nc(C(O)(c2ccccc2)c2nccs2)n3CC)n1 (racemic) [Compound 44, 1-ethyl-N-(1-ethyl-1H-1,2,4-triazol-3-yl)-2-[hydroxy(phenyl)(1,3-thiazol-2-yl)methyl]-5-methoxy-1H-imidazo[4,5-b]pyridine-6-carboxamide]	1 to 10	1 to 10
CCn1cnc(NC(=O)c2cc3c(nc2Cl)nc(C(O)(c2ccccc2F)c2ccccc2F)n3CC)n1 [Compound 100, 2-[bis(2-fluorophenyl)(hydroxy)methyl]-5-chloro-1-ethyl-N-(1-ethyl-1H-1,2,4-triazol-3-yl)-1H-imidazo[4,5-b]pyridine-6-carboxamide]	0.01 to 1	1 to 10
CCn1cnc(NC(=O)c2cc3c(nc2OC)nc(C(O)(c2ccccc2)c2cccnn2)n3CC)n1 (racemic) [Compound 45, 1-ethyl-N-(1-ethyl-1H-1,2,4-triazol-3-yl)-2-[hydroxy(phenyl)(pyridazin-3-yl)methyl]-5-methoxy-1H-imidazo[4,5-b]pyridine-6-carboxamide]	1 to 10	1 to 10
CCn1cnc(NC(=O)c2cc3c(nc2C)nc(C(O)(c2ccccc2F)c2ccccc2F)n3CC)n1 [Compound 106, 2-[bis(2-fluorophenyl)(hydroxy)methyl]-1-ethyl-N-(1-ethyl-1H-1,2,4-triazol-3-yl)-5-methyl-1H-imidazo[4,5-b]pyridine-6-carboxamide]	1 to 10	1 to 10
CCn1cnc(NC(=O)c2cc3c(nc2OC)nc(C(O)(c2ccccc2F)c2ccc(OC(F)F)cc2F)n3CC)n1 (single isomer, unassigned) [Compound 71]	0.01 to 1	0.01 to 1
CCn1ccc(NC(=O)c2cc3c(nc2OC)nc(C(O)(c2ccccc2)c2ccccc2)n3CC)n1 [Compound 77, 1-ethyl-N-(1-ethyl-1H-pyrazol-3-yl)-2-(hydroxydiphenylmethyl)-5-methoxy-1H-imidazo[4,5-b]pyridine-6-carboxamide]	1 to 10	1 to 10
CCn1cc(NC(=O)c2cc3c(nc2OC)nc(C(O)(c2ccccc2)c2ccc(OC(F)F)cc2)n3CC)cn1 (racemic) [Compound 80, 2-{[4-(difluoromethoxy)phenyl](hydroxy)phenylmethyl}-1-ethyl-N-(1-ethyl-1H-pyrazol-4-yl)-5-methoxy-1H-imidazo[4,5-b]pyridine-6-carboxamide]	10 to 100	10 to 100
CCn1cc(NC(=O)c2cc3c(nc2OC)nc(C(O)(c2ccccc2)c2ccccc2)n3CC)cn1 [Compound 105, 1-ethyl-N-(1-ethyl-1 H-pyrazol-4-yl)-2-(hydroxydiphenylmethyl)-5-methoxy-1 H-imidazo[4,5-b]pyridine-6-carboxamide]	1 to 10	1 to 10
CCc1c(C(O)(c2ccccc2)c2ccccn2)nc2cc(OC)c(C(=O)Nc3ncn(CC)n3)cn12 (single isomer, unassigned) [Compound 17, 3-ethyl-N-(1-ethyl-1,2,4-triazol-3-yl)-2-[hydroxy-phenyl-(2-pyridyl)methyl]-7-methoxy-imidazo[1,2-a]pyridine-6-carboxamide]	10 to 100	10 to 100
CCn1cc(NC(=O)c2cc3c(nc2C)nc(C(O)(c2ccccc2)c2ccccc2)n3CC)cn1 [Compound 109, 1-ethyl-N-(1-ethyl-1H-pyrazol-4-yl)-2-(hydroxydiphenylmethyl)-5-methyl-1H-imidazo[4,5-b]pyridine-6-carboxamide]	1 to 10	1 to 10
CCn1cc(NC(=O)c2cc3c(nc2Cl)nc(C(O)(c2ccccc2F)c2ccc(OC(F)F)cc2F)n3CC)cn1 (racemic) [Compound 93, 5-chloro-2-{[4-(difluoromethoxy)-2-fluorophenyl](2-fluorophenyl)hydroxymethyl}-1-ethyl-N-(1-ethyl-1H-pyrazol-4-yl)-1H-imidazo[4,5-b]pyridine-6-carboxamide]	1 to 10	10 to 100
CCn1cc(NC(=O)c2cc3c(nc2Cl)nc(C(O)(c2ccccc2F)c2ccccc2F)n3CC)cn1 [Compound 101, 2-[bis(2-fluorophenyl)(hydroxy)methyl]-5-chloro-1-ethyl-N-(1-ethyl-1H-pyrazol-4-yl)-1H-imidazo[4,5-b]pyridine-6-carboxamide]	1 to 10	0.01 to 1
CCn1cc(NC(=O)c2cc3c(nc2Cl)nc(C(O)(c2ccccc2)c2ccc(OC(F)F)cc2F)n3CC)cn1 (racemic) [Compound 81, 5-chloro-2-{[4-(difluoromethoxy)-2-fluorophenyl](hydroxy)phenylmethyl}-1-ethyl-N-(1-ethyl-1H-pyrazol-4-yl)-1H-imidazo[4,5-b]pyridine-6-carboxamide]	1 to 10	10 to 100
CCn1cnc(NC(=O)c2cc3c(nc2OC)nc(C(O)(c2ccccc2)c2ccc(OC(F)F)cc2)n3CC)n1 (single isomer, unassigned) [Compound 72]	1 to 10	0.01 to 1
